Data on 8 compounds can be found in PubChem BioAssay (NCI).

The term TGI denotes the concentration giving total growth inhibition. Read a high TGI as lower sensitivity of the cells.

Test systems include OVCAR-4 ovarian; NCI-H226 lung; UACC-257 melanoma; MDA-MB-435; HS 578T breast; K-562 leukemia; KM12 colon; NCI/ADR-RES ovarian; SF-295 CNS; MDA-N; U251 CNS; ACHN renal; 786-0 renal; NCI-H23 lung; UACC-62 melanoma; NCI-H460 lung; SW-620 colon; EKVX NSCLC; SNB-19 CNS.
Common to all, as to assay: DTP human tumour cell line panel, 48 h

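A five-concentration, 48-hour dose response in 96-well plates underlies each endpoint, interpolated linearly between surrounding concentrations. Definition used: TGI = concentration required for complete inhibition of growth.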

Regarding `CC(=O)N1N=C(c2c(O)ccc3ccccc23)CC1c1ccc(Cl)cc1` (stereo not drawn), the TGI is greater than 100 µM in the test on OVCAR-4 ovarian; greater than 100 µM with NCI-H226 lung; greater than 100 µM with UACC-257 melanoma; 51.9 µM in the test with MDA-MB-435; 45.1 µM with HS 578T breast; 43.3 µM in the test on K-562 leukemia. In addition, the TGI was 29.9 µM with KM12 colon; 43.9 µM in the test on NCI/ADR-RES ovarian; 54.2 µM in the test on SF-295 CNS; 40.5 µM in the test on MDA-N; 63.1 µM in the test with U251 CNS; greater than 100 µM in the test on ACHN renal. Besides, the TGI in the test on 786-0 renal is greater than 100 µM; in the test on NCI-H23 lung it was 46.5 µM; in the test on UACC-62 melanoma it was 27.6 µM; with NCI-H460 lung it was 48.1 µM; in the test with SW-620 colon it was greater than 100 µM.

On to `COC(=O)C1(C)CCCC2(C)C3CCC4CC3(C=C4CO)CCC12` (stereo not drawn), for which the TGI in the test with OVCAR-4 ovarian, with NCI-H226 lung, with UACC-257 melanoma, with MDA-MB-435, in the test with HS 578T breast and in the test with EKVX NSCLC was greater than 100 µM in each case. Besides, the TGI in the test on NCI/ADR-RES ovarian was 75.5 µM; with SF-295 CNS, greater than 100 µM; with MDA-N, greater than 100 µM; in the test with U251 CNS, greater than 100 µM; in the test on SNB-19 CNS it was greater than 100 µM; in the test on ACHN renal, greater than 100 µM. The TGI in the test on 786-0 renal, with NCI-H23 lung, in the test with UACC-62 melanoma and with SW-620 colon was greater than 100 µM each time.

Take `CC1SC(=O)SC1C` (stereo not drawn): the TGI with OVCAR-4 ovarian, in the test with UACC-257 melanoma, with MDA-MB-435, in the test with HS 578T breast, in the test on K-562 leukemia and in the test on KM12 colon was greater than 100 µM each time. Also, the TGI in the test with EKVX NSCLC, in the test with NCI/ADR-RES ovarian, with SF-295 CNS, in the test on MDA-N, in the test on U251 CNS and with SNB-19 CNS was greater than 100 µM throughout. The total growth inhibition concentration (TGI) in the test with ACHN renal, with 786-0 renal, in the test with NCI-H460 lung and in the test with SW-620 colon was greater than 100 µM in each case.

`O=C1NC(=NC2CCCCC2)C2(CCN(CCCC3(c4ccc(F)cc4)OCCO3)CC2)N1c1ccccc1`: the TGI was determined as 50.2 µM with OVCAR-4 ovarian; 44.3 µM with NCI-H226 lung; 28.7 µM with UACC-257 melanoma; 42.5 µM in the test on MDA-MB-435; 35 µM in the test with HS 578T breast; 38.9 µM in the test on KM12 colon. Moreover, the TGI worked out at 36.2 µM in the test with EKVX NSCLC; 66.8 µM with NCI/ADR-RES ovarian; 35.1 µM in the test on SF-295 CNS; 28.7 µM in the test with MDA-N; 30.2 µM with U251 CNS; 35 µM with SNB-19 CNS. Also, the TGI with ACHN renal was 28.4 µM; in the test with 786-0 renal it was 30.2 µM; in the test with NCI-H23 lung it was 34.3 µM; with SW-620 colon, 50.2 µM.

Take `O=[N+]([O-])/C=C/COCc1cc2c(cc1Br)OCO2`: the TGI with OVCAR-4 ovarian was 36.7 µM; in the test with UACC-257 melanoma, 33.3 µM; with MDA-MB-435 it was 27.1 µM; in the test on HS 578T breast, 50.3 µM; with K-562 leukemia, greater than 100 µM; in the test on KM12 colon it was 33.8 µM. The TGI is 48.8 µM in the test on EKVX NSCLC; 41.6 µM with NCI/ADR-RES ovarian; greater than 100 µM in the test on SF-295 CNS; 32.8 µM in the test with MDA-N; 30.7 µM in the test with U251 CNS; 30 µM in the test on ACHN renal. Further, the TGI in the test on 786-0 renal was 30.6 µM; in the test with UACC-62 melanoma it was 30.1 µM; in the test with NCI-H460 lung, greater than 100 µM; in the test with SW-620 colon it was 39.4 µM.

In the case of `[O-]c1c[n+](CC[n+]2cc([O-])on2)no1`, the TGI in the test on OVCAR-4 ovarian, in the test on UACC-257 melanoma, with MDA-MB-435, in the test with HS 578T breast, with K-562 leukemia and with KM12 colon was greater than 100 µM each time. In addition, the TGI with EKVX NSCLC, with NCI/ADR-RES ovarian, in the test with SF-295 CNS, with MDA-N, in the test with U251 CNS and in the test with SNB-19 CNS was greater than 100 µM throughout. Also, the TGI in the test with ACHN renal, with 786-0 renal, in the test with NCI-H23 lung, in the test on UACC-62 melanoma, in the test on NCI-H460 lung and with SW-620 colon was greater than 100 µM each time.

Regarding `O=C(CC(C(=O)c1cccs1)c1ccsc1)c1ccco1` (stereo not drawn), the concentration for total growth inhibition (TGI) with NCI-H226 lung was greater than 100 µM; in the test on UACC-257 melanoma, greater than 100 µM; in the test with MDA-MB-435, 40.6 µM; in the test with HS 578T breast it was 47 µM; with KM12 colon it was 42.7 µM; in the test on EKVX NSCLC, greater than 100 µM. The TGI was 43.6 µM with NCI/ADR-RES ovarian; greater than 100 µM with SF-295 CNS; greater than 100 µM in the test with MDA-N; 49.6 µM in the test on U251 CNS; 99.2 µM with ACHN renal; greater than 100 µM in the test on 786-0 renal. For the same compound, the TGI in the test on NCI-H23 lung was 49.7 µM; in the test with UACC-62 melanoma it was 62.1 µM; with NCI-H460 lung it was 81.9 µM; with SW-620 colon, greater than 100 µM.

In the case of `O=C(NCCN1CCCC1)c1cn2c(ccc3sc4ccccc4c(=O)c32)n1`, the TGI is 26.3 µM in the test on OVCAR-4 ovarian; 38.1 µM with NCI-H226 lung; 35 µM in the test with UACC-257 melanoma; greater than 56.6 µM with MDA-MB-435; 33.3 µM with HS 578T breast; 37.5 µM in the test with KM12 colon. Further, the TGI is 34.8 µM in the test with EKVX NSCLC; 31.2 µM with NCI/ADR-RES ovarian; 27.1 µM in the test on SF-295 CNS; 33.1 µM in the test on MDA-N; greater than 51.7 µM with U251 CNS; 31.2 µM with SNB-19 CNS. The TGI with ACHN renal turned out to be 21.2 µM; in the test on 786-0 renal it was 2.78 µM; in the test on NCI-H23 lung it was 32.4 µM; in the test on UACC-62 melanoma it was 31.3 µM; in the test with NCI-H460 lung it was 18.6 µM; in the test on SW-620 colon, 3.32 µM.
